From patent US6399568B1, “Cyclic tetrapeptide derivatives and medicinal use thereof” (Japan Energy Corporation, priority 1997, dated 2002) come the findings set out here.

Non-standard residues stand in square brackets, D forms with d. Residues, ends and D or L forms follow the SMILES beside them. ξ: configuration not given here. *: point of attachment. d1Nal = N[C@H](Cc1cccc2ccccc12)C(=O)O; Asu = N[C@@H](CCCCCC(=O)O)C(=O)O; dTic = O=C(O)[C@H]1Cc2ccccc2CN1; Ile(3ξ) = CCC(C)[C@H](N)C(=O)O; Pip = O=C(O)[C@@H]1CCCCN1; dPip = O=C(O)[C@H]1CCCCN1; BrAc = O=C(CBr)*; Sar = CNCC(=O)O; For = O=C*; NHOH = ON*

Test [1] relates to B16/BL6 cells. Kind of test: MHC class-I molecule expression promoting activity. The conditions noted are these: for conc. for 2-fold expression (nM) mean: mean of a plurality of assays; for MHC class-I molecule expression promoting activity: allowed to act on animal cells (summary statement). It is filed as cell-based, mouse.
Description: The cancer cells used were mouse melanoma cells, B16/BL6 cells, provided by, the National Cancer Institute, U.S.A. Said cells were cultivated in MEM media supplemented with 10% FBS at 37° C. in the presence of 5% carbon dioxide in an humidified incubator.
A compound to be tested was preliminarily dissolved in dimethyl sulfoxide (DMSO) and adjusted to a concentration of 100 mM or 10 mM (source solution).
Said B16/BL6 cells were inoculated on 96 well microplate at a cell density of 5000 cells per well, each well containing 200 μl of said medium. […] Thereafter, each well was once washed with PBS (phosphate buffered saline) and floating cells and the medium were removed. Then, the well was treated with 0.1% glutaraldehyde solution for 3 minutes to fix the cells.
The amount of MHC class-I molecule expressed on the surface of the fixed cells was measured by the following method. Anti-H-2K^bD^bD^d antibody, which is an antibody against mouse MHC classI molecule (commercially available from Meiji Milk Co., Ltd), was used as a primary antibody, biotinylated anti-mouse IgG+M (commercially available from Chemicon) was used as a secondary antibody, and streptavidin-β-galactosidase conjugate (commercially available from BRL) was reacted as a labelling enzyme. The amount of the thus labelled enzyme β-galactosidase was measured in a microplate reader by recording the fluorescent intensity (excitation: 365 nm, fluorescence: 450 nm) derived from the enzymaticreaction product using 4-methylumbelliferyl-β-D-galactoside (commercially available from Nacalai Tesque) as a substrate. […] The value obtained by subtracting said background level from the, actually measured value (an apparent value including the background level) was the true measurement reflecting the amount of expressed MHC class-I molecule.
A group without the addition of any compound to be tested was used as a reference group and the measurement of MHC class-I molecule expressed in said group was used as a standard value. The amount of MHC class-I molecule expressed at a concentration of addition of each test compound is shown as a relative amount, said standard value taken as one (1). For each compound to be tested, various concentrations of addition were selected to investigate the dependency of MHC class-I molecule expression promoting action on the concentration of addition.
Test [2] addresses histone deacetylase. Kind of test: Histone deacetylase enzyme inhibiting activity, synthetic peptide substrate. Format: biochemical, mouse. The conditions noted are these: enzyme from B16/BL6 cells; [3H]acetylated histone H4 peptide; 37° C. 3 hours. How it is done: The preparation of histone deacetylase was performed essentially according to the method of Yoshida et al. (J. Biol. Chem., 265,17174-17179, 1990). The enzyme to be used was partially purified from B16/BL6 cells. The cells were suspended in HDA buffer (15 mM potassium phosphate, 5% glycerol, 0.2 mM EDTA, […], pH 7.5), homogenized and centrifuged (2500×g, 10 min) to collect the nuclei, which in turn were homogenized in the same buffer containing 1 M (NH4)2SO4. After ultrasonic disruption and centrifugation, the concentration of (NH4)2SO4 in the collected supernatant was increased to 3.5 M to precipitate histone deacetylase. This precipitate was redissolved in HDA buffer, subjected to gel filtration to replace the solvent with HDA buffer, and used as a crude histone deacetylase enzyme solution.
As a substrate, a synthetic substrate peptide, [^3H]acetylated histone H4 peptide was used. This [^3H]acetylated histone H4 peptide was obtained by synthesizing the N-terminal peptide of histone H4; […] (the C-terminal being cysteine) and radio-acetylating with ^3H -acetic anhydride.
An assay was performed by incubating the synthetic substrate solution and the enzyme solution at 37° C. for 3 hours in the presence of a compound to be tested (reaction volume, 100 μl). The reaction was stopped by adding 25 μl of 1 M HCl and 0.2 M acetic acid and [^3H]acetate excised by the enzyme reaction was extracted with ethyl acetate for radioactivity measurement. As a control group, the same procedure was repeated without addition of any test compound to the reaction system. The inhibiting activity was expressed by a concentration at which the histone deacetylase enzyme activity in the control group was inhibited by 50% (50% inhibiting concentration).

On to `CC(=O)NC(CCCCCC(=O)NO)C(=O)NCc1ccccc1` (centres unmarked) [Ac-Asu(NHOH)-NH-Bzl, reference compound], for which the “conc. for 2-fold expression (nM) mean” value in test [1] (72 hours) is recorded as 2410 nM. Same read-out and setting: the result for `CC(C)C[C@@H]1NC(=O)[C@H](Cc2cn(C=O)c3ccccc23)NC(=O)[C@H](CCCCCC(=O)NO)NC(=O)[C@H]2CCCCN2C1=O` [HDA-16, cyclo(-L-Asu(NHOH)-L-Trp(CHO)-L-Leu-D-Pip-)] (cyclo([Asu](NHOH)W(For)L[dPip])) reads “toxic”; that for `O=C(CBr)NCCCC[C@@H]1NC(=O)[C@H]2CCCN2C(=O)[C@H](Cc2ccccc2)NC(=O)[C@H](Cc2ccccc2)NC1=O` [HDA-26, cyclo(-L-Lys(BrAc)-L-Phe-L-Phe-D-Pro-)] (cyclo(FF[dP]K(BrAc))), 5660 nM. Turning to `CC(C)C[C@@H]1NC(=O)[C@H](Cc2c[nH]c3ccccc23)NC(=O)[C@H](CCCCCC(=O)NO)NC(=O)[C@H]2CCCCN2C1=O` [HDA-33, cyclo(-L-Asu(NHOH)-L-Trp-L-Leu-D-Pip-)] (cyclo([Asu](NHOH)WL[dPip])), the “conc. for 2-fold expression (nM) mean” value in test [1] (72 hours) is reported as “weak”. In general, IC50 refers to the concentration that inhibits the measured activity by half. On to `O=C(CCCCC[C@@H]1NC(=O)[C@@H](Cc2ccccc2)NC(=O)[C@H](Cc2ccccc2)NC(=O)[C@H]2CCCN2C1=O)NO` [HDA-37, cyclo(-L-Asu(NHOH)-D-Pro-L-Phe-D-Phe-)] (cyclo([Asu](NHOH)[dP]F[dF])), for which the “conc. for 2-fold expression (nM) mean” value in test [1] (72 hours) is 320 nM. The molecule further gave an IC50 in test [2] of 9.16 nM.

On to `O=C(CCCCC[C@@H]1NC(=O)[C@@H]2CCCN2C(=O)[C@H](Cc2ccccc2)NC(=O)[C@@H](Cc2ccccc2)NC1=O)NO` [HDA-38, cyclo(-L-Asu(NHOH)-D-Phe-L-Phe-L-Pro-)] (cyclo([Asu](NHOH)[dF]FP)), for which the “conc. for 2-fold expression (nM) mean” value in test [1] (72 hours) is on record as 558 nM. The 50% inhibitory concentration (IC50) in test [2] is 5.32 nM. For the molecule `O=C(CCCCC[C@@H]1NC(=O)[C@@H]2CCCN2C(=O)[C@@H](Cc2ccccc2)NC(=O)[C@H](Cc2ccccc2)NC1=O)NO` [HDA-39, cyclo(-L-Asu(NHOH)-L-Phe-D-Phe-L-Pro-)] (cyclo([Asu](NHOH)F[dF]P)), the “conc. for 2-fold expression (nM) mean” value in test [1] (72 hours) came out at 65800 nM. The molecule further gave a half-inhibitory concentration (IC50) in test [2] of 226 nM.

For the molecule `CN1CC(=O)N[C@@H](CCCCCC(=O)NO)C(=O)N[C@@H](Cc2ccccc2)C(=O)N[C@@H](Cc2ccccc2)C1=O` [HDA-40, cyclo(-L-Asu(NHOH)-L-Phe-L-Phe-Sar-)] (cyclo([Asu](NHOH)FF[Sar])), the “conc. for 2-fold expression (nM) mean” value in test [1] (72 hours) is 748 nM. Turning to `CCC(C)[C@@H]1NC(=O)[C@@H](Cc2ccc(OC)cc2)NC(=O)[C@H](CCCCC(=O)NO)NC(=O)[C@H]2CCCN2C1=O` (stereo partly drawn) [HDA-42, cyclo(-L-Api(NHOH)-D-Tyr(Me)-L-Ile-D-Pro-)], the “conc. for 2-fold expression (nM) mean” value in test [1] (72 hours) is reported as 512 nM. In test [2], this molecule displayed an IC50 of 53.8 nM.

With `CCC(C)[C@@H]1NC(=O)[C@@H](Cc2ccc(OC)cc2)NC(=O)[C@H](CCCCCCC(=O)NO)NC(=O)[C@H]2CCCN2C1=O` (stereo partly drawn) [HDA-43, cyclo(-L-Aaz(NHOH)-D-Tyr(Me)-L-Ile-D-Pro-)], the “conc. for 2-fold expression (nM) mean” value in test [1] (72 hours) came to 155 nM. In test [2], this molecule yielded an IC50 of 33.9 nM. With `COc1ccc(C[C@H]2NC(=O)[C@H](CCCCCC(=O)NO)NC(=O)[C@H]3CCCN3C(=O)[C@H](C)NC2=O)cc1` [HDA-44, cyclo(-L-Asu(NHOH)-D-Tyr(Me)-L-Ala-D-Pro-)] (cyclo(A[dP][Asu](NHOH)[dY](Me))), the “conc. for 2-fold expression (nM) mean” value in test [1] (72 hours) worked out at 35.00 nM. In the case of `C[C@@H]1NC(=O)[C@@H](Cc2ccccc2)NC(=O)[C@H](CCCCCC(=O)NO)NC(=O)[C@H]2CCCN2C1=O` [HDA-45, cyclo(-L-Asu(NHOH)-D-Phe-L-Ala-D-Pro-)] (cyclo(A[dP][Asu](NHOH)[dF])), the “conc. for 2-fold expression (nM) mean” value in test [1] (72 hours) was 23.1 nM. Still for that read-out and setting: the result for `CCC(C)[C@@H]1NC(=O)[C@@H](Cc2ccccc2)NC(=O)[C@H](CCCCCC(=O)NO)NC(=O)[C@H]2CCCN2C1=O` (stereo partly drawn) [HDA-46, cyclo(-L-Asu(NHOH)-D-Phe-L-Ile-D-Pro-)] (cyclo([Asu](NHOH)[dF][Ile(3ξ)][dP])) reads 1.96 nM.

Regarding `CCC(C)[C@@H]1NC(=O)[C@@H](Cc2cccc3ccccc23)NC(=O)[C@H](CCCCCC(=O)NO)NC(=O)[C@H]2CCCN2C1=O` (stereo partly drawn) [HDA-47, cyclo(-L-Asu(NHOH)-D-Naf-L-Ile-D-Pro-)] (cyclo([Asu](NHOH)[d1Nal][Ile(3ξ)][dP])), the “conc. for 2-fold expression (nM) mean” value in test [1] (72 hours) is 9.59 nM. As to `CCC(C)[C@@H]1NC(=O)[C@@H](Cc2ccc3ccc4cccc5ccc2c3c45)NC(=O)[C@H](CCCCCC(=O)NO)NC(=O)[C@H]2CCCN2C1=O` (stereo partly drawn) [HDA-48, cyclo(-L-Asu(NHOH)-D-Pya-L-Ile-D-Pro-)], the “conc. for 2-fold expression (nM) mean” value in test [1] (72 hours) worked out at 0.846 nM. As to `CC[C@H](C)[C@@H]1NC(=O)[C@@H](Cc2ccc(OC)cc2)NC(=O)[C@H](CCCCCC(=O)NO)NC(=O)[C@H]2Cc3ccccc3CN2C1=O` [HDA-52, cyclo(-L-Asu(NHOH)-D-Tyr(Me)-L-Ile-D-Tic-)] (cyclo([Asu](NHOH)[dY](Me)I[dTic])), in test [1] (72 hours), the “conc. for 2-fold expression (nM) mean” value worked out at 0.191 nM. The molecule further yielded an IC50 in test [2] of 4.35 nM. On to `CC(C)C[C@@H]1NC(=O)[C@@H](Cc2ccccc2)NC(=O)[C@H](CCCCCC(=O)NO)NC(=O)[C@@H]2CCCCN2C1=O` [HDA-53, cyclo(-L-Asu(NHOH)-D-Phe-L-Leu-L-Pip-)] (cyclo([Asu](NHOH)[dF]L[Pip])), for which the “conc. for 2-fold expression (nM) mean” value in test [1] (72 hours) was 19.8 nM. On the same count and under the same terms, the result for `O=C(CCCCCc1ccccc1)NO` [Ph-(CH2)5-CONHOH, reference compound] reads 11400 nM; that for `O=C(NO)c1ccccc1` [benzohydroxamic acid, reference compound], 35800 nM; that for `O=C(O)c1ccccc1` [benzoic acid, reference compound], over 200000 nM. `CCCC(=O)O` [butyric acid, reference compound]: the “MHC class-I molecule expression promoting activity” value in test [1] is given as “exhibit the MHC class-I molecule expression promoting activity”.

With `NC(=O)c1cccnc1` [nicotinamide, reference compound], the “conc. for 2-fold expression (nM) mean” value in test [1] (72 hours) is over 1000000 nM. Same read-out and setting: the result for `O=C(NO)c1cccnc1` [nicotinic acid hydroxamate, reference compound] reads 28000 nM; that for `O=C(O)c1cccnc1` [nicotinic acid, reference compound], over 1000000 nM. Regarding `CC(/C=C/C(=O)NO[C@@H]1O[C@H](CO)[C@@H](O)[C@H](O)[C@H]1O)=C\[C@@H](C)C(=O)c1ccc(N(C)C)cc1` [trichostatin C, reference compound], in test [1], the “MHC class-I molecule expression promoting activity” value was “promotes the expression of MHC class-I molecule”. The “conc. for 2-fold expression (nM) mean” value in test [1] (72 hours) came to 6.88 nM. Consider “cyclo (-L-Lys(Ac)L-Phe-L-Phe-D-Pro-)2 [HDA-7, reference compound]”, for which the “conc. for 2-fold expression (nM) mean” value in test [1] (72 hours) is 75000 nM. On the same count and under the same terms, the result for “cyclo(-Asu(NHOH)-D-Phe-Phe-Sar-) [CHAP41]” reads 24.5 nM.

Regarding “cyclo(-Asu(NHOH)-Phe-Phe-D-Pro-)2 [HDA-19, reference compound]”, in test [1] (FIGS. 3 and 4, dependence on concentration of addition), the “MHC class-I molecule expression promoting action” value is reported as “low MHC class-I molecule expression promoting action was observed only at a high concentration of addition”. In addition, the “Twice Promoting Concentration Cx2” value in test [1] (concentration at which MHC class-I expression is twice that without addition, 72 hours) is over 40 µM. The “conc. for 2-fold expression (nM) mean” value in test [1] (72 hours) was “weak”. On to “cyclo(-L-Asu(NHOH)-D-Tyr(Me)-L-Ile-L-Pro-)2 [HDA-14, reference compound]”, for which the “conc. for 2-fold expression (nM) mean” value in test [1] (72 hours) is on record as over 10000 nM.
